Test results: article PMC3518313 (Biochemistry, 2012)
Read-outs that look alike come from different tables or passages of the source.

Tests used:
CaaD = test: Inhibition of CaaD by the internal standard tartrate; type: biochemical, Pseudomonas pavonaceae 170; conditions: at concentrations of 4 mM
αY60W-CaaD [1] = target: T1, αY60W-CaaD (Pseudomonas pavonaceae, UniProt Q9EV84+Q9EV85, Q9EV85:Y61W); test: Global fitting of kinetic data to the six-step model; type: biochemical, Pseudomonas pavonaceae 170
T1 sequence (Q9EV85 2-76 Y61W): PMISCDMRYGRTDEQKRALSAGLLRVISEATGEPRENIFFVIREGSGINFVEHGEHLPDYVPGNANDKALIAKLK
T1 sequence (Q9EV84 2-71): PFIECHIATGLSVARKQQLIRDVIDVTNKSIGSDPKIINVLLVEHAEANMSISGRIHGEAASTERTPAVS

αY60W-CaaD [2] = target: T1, αY60W-CaaD; conditions: competitive inhibition; 9 at 35–200 μM, bromide 0–50,000 μM
αY60W-CaaD [3] = target: T1, αY60W-CaaD
αL57W-CaaD = test: Steady state activity assay; type: biochemical, Pseudomonas pavonaceae 170; conditions: αL57W mutant
αY60W-CaaD [4] = target: T1, αY60W-CaaD; test: Stopped-flow fluorescence binding of malonate semialdehyde; parameters: species or system Pseudomonas pavonaceae 170
αM7W-CaaD = type: biochemical; conditions: αM7W-CaaD vs wild-type
αY60W-CaaD [5] = target: T1, αY60W-CaaD; test: Stopped-flow fluorescence of the reaction with 9, conventional analysis; type: biochemical, Pseudomonas pavonaceae 170
αY60W-CaaD [6] = target: T1, αY60W-CaaD; conditions: αY60W-CaaD vs wild-type
βI37W-CaaD = βI37W-CaaD (Pseudomonas pavonaceae, UniProt Q9EV84+Q9EV85, Q9EV84:I38W); test: biochemical
Wild-type CaaD = target: T2, Wild-type CaaD (Pseudomonas pavonaceae, UniProt Q9EV84+Q9EV85); test: Rapid-quench burst experiment, bromide quantified by IC; conditions: wild-type 400 μM; saturating 9; pH 8.1, 22 °C
T2 sequence (Q9EV85 2-76): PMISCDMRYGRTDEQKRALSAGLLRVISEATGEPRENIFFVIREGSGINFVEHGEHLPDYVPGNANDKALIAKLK
T2 sequence (Q9EV84 2-71): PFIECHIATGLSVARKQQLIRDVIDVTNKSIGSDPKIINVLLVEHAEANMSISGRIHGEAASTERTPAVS

αY60W-CaaD [7] = target: T1, αY60W-CaaD; test: as above
O=C(O)/C=C/Br = test: purified protein, by the assay type
[8] = substrate: O=C(O)/C=C/Br; test: purified protein, by the assay type; conditions: other: wild-type CaaD, 100 mM Na2HPO4 buffer pH 8.1, 22 °C
[9] = Table 2, αY60W 400 μM, saturating 9, pH 8.1, 22 °C
[10] = Table 3, enzyme concentration 200 μM, 9 at 10,000 μM
[11] = Table 3, enzyme concentration 400 μM, 9 at 10,000 μM
[12] = Table 3, enzyme concentration 600 μM, 9 at 10,000 μM
[13] = other: αM7W, 100 mM Na2HPO4 buffer pH 8.1, 22 °C, pH 8.1, 22.0 °C
[14] = other: using the numbers in Table 4 and Scheme 3

## O=C(O)C(O)C(O)C(=O)O (centres unmarked) [Tartrate]
CaaD
  inhibition of CaaD: does not inhibit

## Br [bromide]
αY60W-CaaD [1]; read-out: Kd,Br, best fit, global fit, k5 held fixed at 200 s^−1
  Kd: 12.5 mM
αY60W-CaaD [2]
  Ki: ~10 mM
αY60W-CaaD [3]; bromide bound to αY60W-CaaD
  increase in fluorescence: ~ 14%
αY60W-CaaD [3]; fit by simulation
  fluorescence factor for enzyme-bound bromide: 1.17
αY60W-CaaD [3]; read-out: Kd, Br-, fit by simulation, koff fixed at 200 s^−1
  Kd: 12 mM
αY60W-CaaD [3]; read-out: predicted Kd, saturation of the fluorescence signal, hyperbolic fit
  Kd: 7.4 mM

## O=C(O)/C=C/Cl [compound 2, trans-3-chloroacrylic acid]
αL57W-CaaD
  activity: no activity

## O=CCC(=O)O [compound 4, malonate semialdehyde]
αY60W-CaaD [4]; Kd (koff / kon), estimate from conventional kon and koff
  Kd: 1.1 mM
αY60W-CaaD [4]; Kd, 4, calculated from simulation kon and koff
  Kd: ~0.6 mM
αY60W-CaaD [4]; Kd, end-point fluorescence titration fit to Equation S2
  Kd: 0.38 mM
αY60W-CaaD [4]; fit by simulation
  fluorescence factor for enzyme bound to 4: 1.14
αY60W-CaaD [4]; read-out: koff, 4, conventional analysis, kobs vs [4], 250 ms
  koff: 28 s⁻¹
αY60W-CaaD [4]; read-out: koff, 4, fit by simulation (250 ms)
  koff: 17 s⁻¹
αY60W-CaaD [4]; upon mixing αY60W-CaaD with 4
  increase in the fluorescence signal: 16%

## O=C(O)/C=C/Br [compound 9, trans-3-bromoacrylate]
αM7W-CaaD
  decrease in kcat compared with wild-type: ~ 4 fold
  decrease in kcat/Km compared with wild-type: 4 fold
αL57W-CaaD
  activity: no activity
αY60W-CaaD [5]; fit to Eq. 3
  net forward rate kfor: ~ 8 s^−1
αY60W-CaaD [5]; fit to Eq. 3, equal to kcat
  apparent reverse rate krev: ~ 3 s^−1
αY60W-CaaD [5]; single exponential fit, first 1 s
  maximum rate of the fluorescence change: ~ 10 s^−1
αY60W-CaaD [1]; global fit to Scheme 4, fractional change in enzyme fluorescence
  f/f0 (fluorescence scaling factor), best fit: 0.710
αY60W-CaaD [1]; global fit, formation of E*PQ, k-3 fixed at 1 s^−1
  k3, best fit: 9.6 s⁻¹
αY60W-CaaD [6]
  decrease in Km compared with wild-type: ~ 1.5 fold
βI37W-CaaD
  Kd: > 40 mM
Wild-type CaaD
  Burst Amplitude (A): 0.8
  kburst: 90 ± 20 ^c s^−1
  kcat (calculated from the burst equation): 3 ± 0.5 s⁻¹
αY60W-CaaD [7]; [9]
  Burst Amplitude (A): 0.9
  kburst: 86 ± 10 s⁻¹
  kcat (calculated from the burst equation): 2.5 ± 0.5 s⁻¹
αY60W-CaaD [7]; [10]
  Burst Amplitude (A): 0.85
  kburst: 43 ± 3 ^c s^−1
  kcat (calculated from the burst equation): 1.8 ± 0.5 s⁻¹
αY60W-CaaD [7]; [11]
  Burst Amplitude (A): 0.9
  kburst: 86 ± 20 s⁻¹
  kcat (calculated from the burst equation): 2.5 ± 0.5 s⁻¹
αY60W-CaaD [7]; [12]
  Burst Amplitude (A): 0.94
  kburst: 107 ± 15 s⁻¹
  kcat (calculated from the burst equation): 2.8 ± 0.5 s⁻¹
αY60W-CaaD [7]; summary of Tables 2 and 3 (CaaD and αY60W-CaaD), 9 at 10 mM
  steady state turnover: 3 s⁻¹

## αM7W-CaaD (Pseudomonas pavonaceae; Q9EV85:M8W)
O=C(O)/C=C/Br; [13]
  Km: 120 ± 10 OM
  kcat: 0.6 s⁻¹
  kcat/Km: 3000 M⁻¹ s⁻¹

## αY60W-CaaD (Pseudomonas pavonaceae; Q9EV85:Y61W)
O=C(O)/C=C/Br; [14]
  Km: 95 µM
  kcat: 2.2 s⁻¹
O=C(O)/C=C/Br; other: αY60W, 100 mM Na2HPO4 buffer pH 8.1, 22 °C, pH 8.1, 22.0 °C
  Km: 70 ± 3.5 OM

B1: Wild-type CaaD (Pseudomonas pavonaceae) (protein)
chain 1: PMISCDMRYGRTDEQKRALSAGLLRVISEATGEPRENIFFVIREGSGINFVEHGEHLPDYVPGNANDKALIAKLK
chain 2: PFIECHIATGLSVARKQQLIRDVIDVTNKSIGSDPKIINVLLVEHAEANMSISGRIHGEAASTERTPAVS
[8]
  Km: 120 ± 10 OM
  kcat: 2.5 s⁻¹
  kcat/Km: 13000 M⁻¹ s⁻¹
